According to ChEMBL document CHEMBL4507270 (2021):

Experiments:
[1] = target: Glycogen synthase kinase-3 beta (Homo sapiens) (UniProt P49841)
[2] = tested on: ALK tyrosine kinase receptor (Homo sapiens), Q9UM73 [L1196M]
[3] = target: Death-associated protein kinase 3 (Homo sapiens) (UniProt O43293)
[4] = target: Mast/stem cell growth factor receptor Kit (Homo sapiens) (UniProt P10721)
[5] = target: Mitogen-activated protein kinase 14 (Homo sapiens) (UniProt Q16539)
[6] = target: Receptor tyrosine-protein kinase erbB-2 (Homo sapiens) (UniProt P04626)
[7] = target: Calcium/calmodulin-dependent protein kinase type II subunit alpha (Homo sapiens) (UniProt Q9UQM7)
[8] = target: Tyrosine-protein kinase JAK1 (Homo sapiens) (UniProt P23458)
[9] = target: Homeodomain-interacting protein kinase 2 (Homo sapiens) (UniProt Q9H2X6)
[10] = tested on: Tyrosine-protein kinase ABL1 (Homo sapiens), P00519 [Q252H]
[11] = target: Mitogen-activated protein kinase kinase kinase 11 (Homo sapiens) (UniProt Q16584)
[12] = target: Calcium/calmodulin-dependent protein kinase kinase 2 (Homo sapiens) (UniProt Q96RR4)
[13] = target: Fibroblast growth factor receptor 1 (Homo sapiens, UniProt P11362)
[14] = target: Casein kinase I isoform gamma-2 (Homo sapiens) (UniProt P78368)
[15] = target: Ribosomal protein S6 kinase alpha-1 (Homo sapiens) (UniProt Q15418)
[16] = target: Serine/threonine-protein kinase PLK1 (Homo sapiens) (UniProt P53350)
[17] = target: Tyrosine-protein kinase BTK (Homo sapiens) (UniProt Q06187)
[18] = target: Mitogen-activated protein kinase kinase kinase 4 (Homo sapiens) (UniProt Q9Y6R4)
[19] = target: Serine/threonine-protein kinase LATS2 (Homo sapiens) (UniProt Q9NRM7)
[20] = target: Serine/threonine-protein kinase Chk1 (Homo sapiens) (UniProt O14757)
[21] = target: Mitogen-activated protein kinase kinase kinase 7 (Homo sapiens) (UniProt O43318)
[22] = target: Mitogen-activated protein kinase 9 (Homo sapiens) (UniProt P45984)
[23] = target: Mitogen-activated protein kinase kinase kinase 3 (Homo sapiens) (UniProt Q99759)
[24] = target: Macrophage-stimulating protein receptor (Homo sapiens) (UniProt Q04912)
[25] = target: Cyclin-dependent kinase 4 (Homo sapiens) (UniProt P11802)
[26] = target: Serine/threonine-protein kinase Nek10 (Homo sapiens) (UniProt Q6ZWH5)
[27] = target: Tyrosine-protein kinase ABL1 (Homo sapiens) (UniProt P00519)
[28] = target: Tyrosine-protein kinase Fer (Homo sapiens) (UniProt P16591)
[29] = target: Dual specificity tyrosine-phosphorylation-regulated kinase 2 (Homo sapiens) (UniProt Q92630)
[30] = target: Insulin receptor-related protein (Homo sapiens) (UniProt P14616)
[31] = target: 5-hydroxytryptamine receptor 3A (Homo sapiens) (UniProt P46098); details: Compound concentration 10.0 uM
[32] = target: Inhibitor of nuclear factor kappa-B kinase subunit beta (Homo sapiens) (UniProt O14920)
[33] = target: Phosphorylase b kinase gamma catalytic chain, skeletal muscle/heart isoform (Homo sapiens) (UniProt Q16816)
[34] = target: Serine/threonine-protein kinase DCLK3 (Homo sapiens) (UniProt Q9C098)
[35] = target: Peripheral plasma membrane protein CASK (Homo sapiens) (UniProt O14936)
[36] = target: Alpha-2A adrenergic receptor (Homo sapiens) (UniProt P08913); details: Compound concentration 10.0 uM
[37] = target: Testis-specific serine/threonine-protein kinase 1 (Homo sapiens) (UniProt Q9BXA7)
[38] = target: Serine/threonine-protein kinase 35 (Homo sapiens) (UniProt Q8TDR2)
[39] = target: Serine/threonine-protein kinase PLK4 (Homo sapiens) (UniProt O00444)
[40] = target: TGF-beta receptor type-1 (Homo sapiens) (UniProt P36897)
[41] = target: Ephrin type-B receptor 4 (Homo sapiens) (UniProt P54760)
[42] = target: Serine/threonine-protein kinase MAK (Homo sapiens) (UniProt P20794)
[43] = target: Phosphatidylinositol 4,5-bisphosphate 3-kinase catalytic subunit beta isoform (Homo sapiens) (UniProt P42338)
[44] = target: SRSF protein kinase 3 (Homo sapiens) (UniProt Q9UPE1)
[45] = target: Serine/threonine-protein kinase 16 (Homo sapiens) (UniProt O75716)
[46] = Compound concentration 1000.0 nM
[47] = Compound concentration 100.0 nM

Calcium/calmodulin-dependent protein kinase type II subunit alpha (Homo sapiens), sequence (Q9UQM7 whole entry): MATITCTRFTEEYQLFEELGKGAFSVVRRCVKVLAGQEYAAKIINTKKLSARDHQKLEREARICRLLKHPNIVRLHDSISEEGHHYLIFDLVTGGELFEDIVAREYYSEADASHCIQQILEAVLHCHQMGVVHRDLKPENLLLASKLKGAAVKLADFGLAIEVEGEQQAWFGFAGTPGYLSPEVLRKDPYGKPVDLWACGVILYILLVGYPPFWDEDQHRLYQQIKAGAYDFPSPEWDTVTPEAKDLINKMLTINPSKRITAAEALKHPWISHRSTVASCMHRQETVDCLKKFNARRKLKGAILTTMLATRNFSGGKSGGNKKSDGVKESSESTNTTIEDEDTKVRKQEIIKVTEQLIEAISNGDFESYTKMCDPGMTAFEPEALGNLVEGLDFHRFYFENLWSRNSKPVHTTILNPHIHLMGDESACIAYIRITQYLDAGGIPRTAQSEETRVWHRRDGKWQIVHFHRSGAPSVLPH
Alpha-2A adrenergic receptor (Homo sapiens), sequence (P08913 whole entry): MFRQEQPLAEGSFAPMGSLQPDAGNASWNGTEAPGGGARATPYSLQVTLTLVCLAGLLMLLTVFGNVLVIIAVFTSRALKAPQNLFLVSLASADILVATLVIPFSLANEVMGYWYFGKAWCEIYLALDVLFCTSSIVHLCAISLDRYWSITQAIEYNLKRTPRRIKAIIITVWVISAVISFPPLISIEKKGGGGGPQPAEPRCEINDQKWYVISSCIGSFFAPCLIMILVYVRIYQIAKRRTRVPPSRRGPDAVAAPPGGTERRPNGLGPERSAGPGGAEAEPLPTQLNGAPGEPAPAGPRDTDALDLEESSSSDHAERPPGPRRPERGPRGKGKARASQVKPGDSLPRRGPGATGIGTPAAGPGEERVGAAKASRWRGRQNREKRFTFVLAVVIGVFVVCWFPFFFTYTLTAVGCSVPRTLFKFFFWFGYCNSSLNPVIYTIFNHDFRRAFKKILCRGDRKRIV
Serine/threonine-protein kinase PLK1 (Homo sapiens), sequence (P53350 whole entry): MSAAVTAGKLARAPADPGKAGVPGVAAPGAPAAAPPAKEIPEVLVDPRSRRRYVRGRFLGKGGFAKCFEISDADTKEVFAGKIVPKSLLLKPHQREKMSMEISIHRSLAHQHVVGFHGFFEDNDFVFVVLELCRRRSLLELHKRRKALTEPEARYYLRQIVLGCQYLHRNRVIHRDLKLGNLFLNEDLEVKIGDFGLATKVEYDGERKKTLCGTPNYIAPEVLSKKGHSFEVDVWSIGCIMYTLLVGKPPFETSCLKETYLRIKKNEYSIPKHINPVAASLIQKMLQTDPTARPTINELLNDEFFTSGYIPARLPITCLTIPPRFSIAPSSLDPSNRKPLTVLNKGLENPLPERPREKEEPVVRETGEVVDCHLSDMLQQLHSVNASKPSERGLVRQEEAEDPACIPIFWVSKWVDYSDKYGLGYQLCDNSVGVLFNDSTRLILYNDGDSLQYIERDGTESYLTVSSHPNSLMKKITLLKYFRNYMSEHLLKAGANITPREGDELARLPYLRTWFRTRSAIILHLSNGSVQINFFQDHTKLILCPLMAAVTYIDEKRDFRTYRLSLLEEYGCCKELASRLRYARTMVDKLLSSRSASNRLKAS
Mitogen-activated protein kinase kinase kinase 11 (Homo sapiens), sequence (Q16584 whole entry, looked up): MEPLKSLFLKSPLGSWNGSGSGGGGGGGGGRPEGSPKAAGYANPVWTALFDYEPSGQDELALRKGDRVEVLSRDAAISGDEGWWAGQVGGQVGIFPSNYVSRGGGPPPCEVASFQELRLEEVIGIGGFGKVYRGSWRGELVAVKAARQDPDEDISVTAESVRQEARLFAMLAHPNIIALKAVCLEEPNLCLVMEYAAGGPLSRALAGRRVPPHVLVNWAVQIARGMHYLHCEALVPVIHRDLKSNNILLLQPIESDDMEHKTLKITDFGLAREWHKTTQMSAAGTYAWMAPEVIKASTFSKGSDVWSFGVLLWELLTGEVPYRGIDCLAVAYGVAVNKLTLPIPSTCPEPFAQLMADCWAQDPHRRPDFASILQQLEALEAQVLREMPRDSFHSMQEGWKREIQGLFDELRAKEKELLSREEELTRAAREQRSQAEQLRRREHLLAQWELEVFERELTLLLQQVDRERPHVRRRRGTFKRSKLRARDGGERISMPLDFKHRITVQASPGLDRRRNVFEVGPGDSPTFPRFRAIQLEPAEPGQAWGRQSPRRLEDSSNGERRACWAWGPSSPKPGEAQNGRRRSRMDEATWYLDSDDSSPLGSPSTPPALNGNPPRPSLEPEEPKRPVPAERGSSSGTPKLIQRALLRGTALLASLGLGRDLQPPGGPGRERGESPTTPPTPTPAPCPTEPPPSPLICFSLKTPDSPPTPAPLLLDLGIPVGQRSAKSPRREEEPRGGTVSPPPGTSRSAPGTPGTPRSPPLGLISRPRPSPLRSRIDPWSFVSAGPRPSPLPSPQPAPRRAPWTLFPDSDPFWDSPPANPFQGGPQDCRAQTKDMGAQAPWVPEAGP
Mitogen-activated protein kinase kinase kinase 3 (Homo sapiens), sequence (Q99759 whole entry): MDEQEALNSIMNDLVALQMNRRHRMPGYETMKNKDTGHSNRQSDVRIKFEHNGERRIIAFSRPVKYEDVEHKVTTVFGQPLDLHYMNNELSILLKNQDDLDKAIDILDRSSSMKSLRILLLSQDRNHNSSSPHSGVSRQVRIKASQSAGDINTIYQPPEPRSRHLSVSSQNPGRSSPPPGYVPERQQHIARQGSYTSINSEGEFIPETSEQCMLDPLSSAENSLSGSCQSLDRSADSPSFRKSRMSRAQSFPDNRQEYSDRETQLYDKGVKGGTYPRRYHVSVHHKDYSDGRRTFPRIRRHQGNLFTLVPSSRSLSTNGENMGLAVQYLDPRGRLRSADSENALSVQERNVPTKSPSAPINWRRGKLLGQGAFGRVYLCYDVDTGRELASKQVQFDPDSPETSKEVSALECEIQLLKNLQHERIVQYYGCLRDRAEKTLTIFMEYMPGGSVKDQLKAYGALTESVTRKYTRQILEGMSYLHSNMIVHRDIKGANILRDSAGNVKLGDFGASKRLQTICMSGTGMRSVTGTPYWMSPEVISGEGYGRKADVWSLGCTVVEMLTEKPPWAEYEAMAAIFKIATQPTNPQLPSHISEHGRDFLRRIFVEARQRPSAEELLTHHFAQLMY
Receptor tyrosine-protein kinase erbB-2 (Homo sapiens), sequence (P04626 whole entry): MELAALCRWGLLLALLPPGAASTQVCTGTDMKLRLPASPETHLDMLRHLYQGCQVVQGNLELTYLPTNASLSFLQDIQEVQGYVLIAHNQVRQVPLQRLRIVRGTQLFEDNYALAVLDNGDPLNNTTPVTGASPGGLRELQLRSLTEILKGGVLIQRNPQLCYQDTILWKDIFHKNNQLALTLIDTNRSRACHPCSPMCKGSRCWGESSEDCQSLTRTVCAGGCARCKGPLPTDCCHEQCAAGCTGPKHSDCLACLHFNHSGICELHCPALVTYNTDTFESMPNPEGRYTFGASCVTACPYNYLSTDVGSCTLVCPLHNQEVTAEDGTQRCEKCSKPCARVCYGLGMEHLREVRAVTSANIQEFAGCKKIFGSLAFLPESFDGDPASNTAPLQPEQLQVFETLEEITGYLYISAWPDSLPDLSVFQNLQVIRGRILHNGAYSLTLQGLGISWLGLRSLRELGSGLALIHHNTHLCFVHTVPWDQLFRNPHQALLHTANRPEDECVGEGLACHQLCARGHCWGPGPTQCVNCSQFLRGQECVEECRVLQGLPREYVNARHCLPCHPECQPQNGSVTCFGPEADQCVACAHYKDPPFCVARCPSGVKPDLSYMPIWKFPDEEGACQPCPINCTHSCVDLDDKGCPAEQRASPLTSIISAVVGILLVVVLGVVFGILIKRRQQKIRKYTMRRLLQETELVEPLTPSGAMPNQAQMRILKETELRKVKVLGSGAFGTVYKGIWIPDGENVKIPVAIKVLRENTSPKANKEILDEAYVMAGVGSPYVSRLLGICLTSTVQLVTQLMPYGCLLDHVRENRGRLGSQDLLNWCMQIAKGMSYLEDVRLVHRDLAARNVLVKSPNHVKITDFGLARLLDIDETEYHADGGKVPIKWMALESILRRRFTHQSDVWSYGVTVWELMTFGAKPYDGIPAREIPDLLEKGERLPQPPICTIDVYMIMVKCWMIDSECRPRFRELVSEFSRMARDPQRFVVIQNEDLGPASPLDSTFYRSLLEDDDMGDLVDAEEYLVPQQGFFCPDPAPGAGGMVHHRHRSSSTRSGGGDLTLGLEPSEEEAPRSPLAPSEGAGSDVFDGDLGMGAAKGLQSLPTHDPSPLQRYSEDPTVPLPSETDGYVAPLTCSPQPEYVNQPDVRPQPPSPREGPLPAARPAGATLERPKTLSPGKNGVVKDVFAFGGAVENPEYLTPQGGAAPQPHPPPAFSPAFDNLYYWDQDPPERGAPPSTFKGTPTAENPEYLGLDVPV
Testis-specific serine/threonine-protein kinase 1 (Homo sapiens), sequence (Q9BXA7 whole entry): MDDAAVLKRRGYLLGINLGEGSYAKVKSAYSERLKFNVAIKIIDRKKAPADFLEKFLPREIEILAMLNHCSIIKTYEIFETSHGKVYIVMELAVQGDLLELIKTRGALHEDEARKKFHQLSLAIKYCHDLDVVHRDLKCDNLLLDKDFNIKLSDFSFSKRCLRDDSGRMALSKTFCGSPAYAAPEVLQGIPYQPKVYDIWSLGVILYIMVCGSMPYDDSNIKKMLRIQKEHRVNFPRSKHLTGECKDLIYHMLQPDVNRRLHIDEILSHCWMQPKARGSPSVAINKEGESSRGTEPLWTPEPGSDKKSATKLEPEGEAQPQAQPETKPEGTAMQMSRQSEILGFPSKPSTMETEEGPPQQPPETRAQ
Serine/threonine-protein kinase 16 (Homo sapiens), sequence (O75716 whole entry): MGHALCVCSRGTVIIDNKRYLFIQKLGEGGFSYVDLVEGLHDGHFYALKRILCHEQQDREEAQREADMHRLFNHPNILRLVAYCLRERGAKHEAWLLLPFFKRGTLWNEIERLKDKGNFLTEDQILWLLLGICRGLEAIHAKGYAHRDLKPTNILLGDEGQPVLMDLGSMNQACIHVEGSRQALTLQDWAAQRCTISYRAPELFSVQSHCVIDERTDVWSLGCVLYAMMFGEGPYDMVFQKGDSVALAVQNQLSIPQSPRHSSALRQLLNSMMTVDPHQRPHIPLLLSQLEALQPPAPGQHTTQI

Cc1cc(NC(=O)c2cccc(S(F)(F)(F)(F)F)c2)cc(-n2ccn3nc(-c4cccnc4)cc23)c1 [BAY-309]
residual activity [1, 46]: 85.4% | residual activity [2, 46]: 100% | residual activity [3, 46]: 100% | residual activity [4, 46]: 89.5% | residual activity [5, 46]: 100% | residual activity [6, 46]: 100% | residual activity [7, 46]: 100% | residual activity [8, 46]: 28.7% | residual activity [9, 46]: 85% | residual activity [10, 46]: 100% | residual activity [11, 46]: 100% | residual activity [12, 46]: 99.6% | residual activity [13, 46]: 100% | residual activity [14, 46]: 95.4% | residual activity [15, 46]: 91.7% | residual activity [16, 46]: 95.3% | residual activity [17, 46]: 83.8% | residual activity [18, 46]: 53.6% | residual activity [19, 46]: 100% | residual activity [20, 46]: 72% | residual activity [21, 46]: 100% | residual activity [22, 46]: 76.9% | residual activity [23, 46]: 87.9% | residual activity [24, 46]: 71% | residual activity [25, 46]: 82.9% | residual activity [26, 46]: 37.6% | residual activity [27, 46]: 73.6% | residual activity [28, 46]: 59.4% | residual activity [29, 46]: 100% | residual activity [30, 46]: 100% | inhibition [31]: -8.73% | residual activity [32, 46]: 65.5% | residual activity [33, 46]: 100% | residual activity [34, 46]: 100% | residual activity [35, 46]: 68.1% | inhibition [36]: 15.8% | residual activity [37, 46]: 100% | residual activity [38, 46]: 100% | residual activity [39, 46]: 96.9% | residual activity [40, 46]: 74.3% | residual activity [41, 46]: 100% | residual activity [42, 46]: 100% | residual activity [43, 46]: 100% | residual activity [44, 46]: 100% | residual activity [45, 46]: 53.9%

Cc1cc(C)c(-n2ccn3nc(-c4cccnc4)cc23)cc1NC(=O)c1cc(C#N)cc(S(F)(F)(F)(F)F)c1 [BAY-826]
residual activity [1, 47]: 85.9% | residual activity [2, 47]: 99.6% | residual activity [3, 47]: 78.1% | residual activity [4, 47]: 44.5% | residual activity [5, 47]: 0% | residual activity [6, 47]: 84.2% | residual activity [7, 47]: 95% | residual activity [8, 47]: 93.1% | residual activity [9, 47]: 86.2% | residual activity [10, 47]: 72.9% | residual activity [11, 47]: 100% | residual activity [12, 47]: 89% | residual activity [13, 47]: 85.5% | residual activity [14, 47]: 77.6% | residual activity [15, 47]: 97% | residual activity [16, 47]: 100% | residual activity [17, 47]: 100% | residual activity [18, 47]: 98.1% | residual activity [19, 47]: 73.2% | residual activity [20, 47]: 86% | residual activity [21, 47]: 66.2% | residual activity [22, 47]: 66.1% | residual activity [23, 47]: 67.3% | residual activity [24, 47]: 75.6% | residual activity [25, 47]: 89.4% | residual activity [26, 47]: 100% | residual activity [27, 47]: 74.6% | residual activity [28, 47]: 100% | residual activity [29, 47]: 82.5% | residual activity [30, 47]: 91.8% | inhibition [31]: 18.4% | residual activity [32, 47]: 100% | residual activity [33, 47]: 80.1% | residual activity [34, 47]: 83.5% | residual activity [35, 47]: 86.6% | inhibition [36]: 11.1% | residual activity [37, 47]: 100% | residual activity [38, 47]: 92% | residual activity [39, 47]: 64.1% | residual activity [40, 47]: 98.2% | residual activity [41, 47]: 99.6% | residual activity [42, 47]: 77.2% | residual activity [43, 47]: 89.1% | residual activity [44, 47]: 100% | residual activity [45, 47]: 64.3%
